Measurements from EP4596534A1, “NONCOVALENT SMALL-MOLECULE INHIBITORS OF THE KEAP1-NRF2 INTERACTION” (University of Copenhagen, priority 2024, dated 2025).

What follows are compounds tested against T1, human Keap1 Kelch domain (Homo sapiens, UniProt Q14145) (assay: Heterologous competition fluorescence polarization (FP) binding assay, Cy5-Nrf2 peptide probe). Settings: mean ± SEM of at least 3 individual measurements; Keap1 Kelch 14 nM, Cy5-Nrf2 probe 3 nM, 4% DMSO.
T1 construct: human Keap1 Kelch domain (residue 321-609, UniProt Q14145); made in house; host or cells: Escherichia coli BL21 (DE3) pLysS, pRSET A vector
T1 sequence (Q14145 321-609): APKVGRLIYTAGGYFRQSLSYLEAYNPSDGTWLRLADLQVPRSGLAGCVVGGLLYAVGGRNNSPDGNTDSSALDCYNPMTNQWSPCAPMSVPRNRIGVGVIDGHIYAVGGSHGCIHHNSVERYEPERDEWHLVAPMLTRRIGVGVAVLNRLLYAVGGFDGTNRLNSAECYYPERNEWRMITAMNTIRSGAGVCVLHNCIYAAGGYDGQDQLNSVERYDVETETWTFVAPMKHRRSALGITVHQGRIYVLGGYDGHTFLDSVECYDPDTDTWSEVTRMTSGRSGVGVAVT
Protocol: The assay was performed in a 1 × HBSTET buffer (10 mM HEPES, 150 mM NaCl, 0.005% Tween20, 3 mM ethylenediaminetetraacetic acid (EDTA), 1 mM TCEP, pH = 7.4) using black flat-bottom 384-well plates (Corning Life Sciences, NY), a volume of 30 µL/well, and a final DMSO concentration of 4% or 8%. The assay plate was spun down to ascertain proper mixing and removal of potential air bubbles and incubated for 10-15 min at room temperature before measuring the FP levels on a Safire2 plate reader (Tecan, Männedorf, Switzerland). The g-factor was adjusted at each experiment so that a series of three blank wells containing probe but no Keap1 Kelch defined the baseline FP value. The Cy5-Nrf2 probe was measured at excitation/emission values of 635:670 nm. The FP values were fitted to the one-site specific binding equation: Y = Bmax × X/(Kd + X), with Bmax being the maximal FP value, X the Keap1 Kelch concentration, and Y the variable FP values. The Kd values were derived from the resulting binding saturation curve as being equal to the Keap1 Kelch concentration, where the curve is half-saturated.
The affinities between nonfluorescent small molecule Keap1 inhibitors and Keap1 Kelch were determined as Ki values in a heterologous competition FP binding assay. […] FP values were fitted to the equation Y = Bottom + (Top- Bottom)/[1 + (10^HillSlope×(log IC50-X))], where X is the logarithmic value of compound concentration. Hereby, the IC50 value was obtained, which together with the Kd value and probe and Keap1 Kelch concentrations was used to calculate the theoretical competitive inhibition constant, the Ki value.^43 Ki values are shown as mean ± SEM (standard error of mean) if based on two or more individual measurements.
`CCOc1ccc(S(=O)(=O)N2CCc3ccc(C(NC(=O)c4cccc5c4-c4ccccc4C5O)C(=O)O)cc3C2)cc1C#N` (stereo not shown) [Compound K32, 2-(2-((3-cyano-4-ethoxyphenyl)sulfonyl)-1,2,3,4-tetrahydroisoquinolin-7-yl)-2-(9-hydroxy-9H-fluorene-4-carboxamido)acetic acid] was tested, and the Ki was 0.59 ± 0.1 µM. With `CCOc1ccc(S(=O)(=O)N2CCc3ccc(C(NC(=O)c4cccc5c4-c4ccccc4C54SCCS4)C(=O)O)cc3C2)cc1C#N` (stereo not shown) [Compound K38, 2-(2-((3-cyano-4-ethoxyphenyl)sulfonyl)-1,2,3,4-tetrahydroisoquinolin-7-yl)-2-(spiro[fluorene-9,2'-[1,3]dithiolane]-4-carboxamido)acetic acid] the Ki was 0.17 ± 0.04 µM. With `CCOc1ccc(S(=O)(=O)N2Cc3ccc(C(NC(=O)c4cccc5c4-c4ccccc4C5=O)C(=O)O)cc3C2)cc1C#N` (stereo not shown) [Compound K50, 2-(2-((3-cyano-4-ethoxyphenyl)sulfonyl)isoindolin-5-yl)-2-(9-oxo-9H-fluorene-4-carboxamido)acetic acid] the Ki was 3.6 ± 0.4 µM. For `O=C(O)CC(NC(=O)c1cccc2c1-c1ccccc1C2=O)c1ccc2c(c1)CN(S(=O)(=O)c1ccccc1)CC2` (stereo not shown) [Compound K46, 3-(9-oxo-9H-fluorene-4-carboxamido)-3-(2-(phenylsulfonyl)-1,2,3,4-tetrahydroisoquinolin-7-yl)propanoic acid], the Ki was 0.93 ± 0.21 µM.
